Measurements published in US4876284A, “1-alkyl-2-aminotetralin derivatives” (Per Arvid Emil Carlsson, priority 1981, dated 1989).

How the values were obtained:
[1] = in vivo; cited from earlier work
[2] = tested on: DA autoreceptors; test: Spontaneous locomotor activity in non-pretreated rats; type: in vivo, rat; conditions: non-pretreated rats
Protocol: Untreated animals exposed to a new environment display an initial high motor activity which then gradually declines over a period of time. Administration of DA-receptor agonists (e.g. apomorphine) in doses where preferential autoreceptor stimulation is likely to occur, causes a depression of the spontaneous motility mentioned above, considered to be due to the DA autoreceptor-medicated attenuation of central DA transmission.
Rats (150-300 g) were injected subcutaneously with compound 2,5-OH-DPAT or apomorphine and after 5 minutes they were individually placed in motility boxes ("M/P 40 Fc Electronic Motility Meter". Motron Products, Stockholm) and the motor activity (0-30 min) was quantified. […] These findings are in congruence with the results obtained with the selective DA-autoreceptor agonist 3-PPP [S. Hjorth t al., Life Sciences, 28, 1225 (1981)] but in sharp contrast to the results obtained with 5-OH-DPAT and apomorphine (Table III).
Non-pretreated rats were given compound -2 (0.0625-16.0 mg/kg),
5OH--2-(di-n-propylamino) tetralin (5OH--DPAT; 0.0125-0.05 mg/kg,
apomorphine (0.1-1.0 mg/kg) or saline subcutaneously. Five minutes later
they were placed individually into motility meters and the locomotor

[3] = tested on: central DA-receptor (pre- and/or postsynaptic); conditions: reserpine-pretreated rats, s.c., cited from earlier work
[4] = tested on: autoreceptor; conditions: low doses; cited from earlier work
[5] = tested on: postsynaptic DA receptors; test: Antagonism of the reserpine plus α-methyl-para-tyrosine-induced immobility (neuroleptic syndrome) in rats; motor activity

SMILES | actions stated in CA 79: 146294b [1] | Locomotor activity ([2]; 0.1 mg/kg s.c.) [counts 0.30 min] | Locomotor activity ([2]; 1.0 mg/kg s.c.) [counts 0.30 min] | effect on locomotor activity, in words ([2]; s.c.) | Dopa-accumulation; ED50, Limbic (taken from Hacksell et al., J. Med. Chem. 22, 1469 (1979)) ([3]; limbic forebrain) [μmol/kg s.c.] | Dopa-accumulation; ED50, Striatum (taken from Hacksell et al., J. Med. Chem. 22, 1469 (1979)) ([3]; striatum) [μmol/kg s.c.] | effects demonstrated in man [4] | Motor activity ([5]; 1 mg/kg s.c., reserpine 10 mg/kg + α-methyl-para-tyrosine 250 mg/kg i.p., means ± s.e.m.) [counts 0-60 min] | motor response / postsynaptic DA-receptor stimulatory effects ([5]; comparative study, Table II, s.c.) | antagonism of the reserpine-induced syndrome / behaviour elicited ([5]; reserpine and α-methyl-para-tyrosine pretreated rats)
CN(C)C1CCc2ccc(O)cc2C1(C)C (stereo not shown) [1,1-Dimethyl-2-(N,N-dimethylamino)-7-hydroxytetralin] | analgesic and intestinal movement accelerating actions | – | – | – | – | – | – | – | – | –
CN1CCc2cccc3c2[C@H]1Cc1ccc(O)c(O)c1-3 [Apomorphine] | – | 134 ± 9 | 439 ± 67 | lower doses significantly suppressing and higher dosess significantly stimulating the rat locomotor activity | 0.19 | 0.22 | "paradoxical" antipsychotic and antidyskinetic effects | 517 ± 56 | strong central postsynaptic DA-receptor stimulatory effects | pronounced stereotyped and hyperactive behaviour
